Results from US5070139A, “2,4-disubstituted 1,3-dioxolanes” (J. Uriach & Cia. S.A., priority 1987, dated 1991).
Structures can show the parent of a compound that is named as a salt.

How the values were obtained:
[1] = test system: platelet aggregation induced by PAF in rabbit platelets; experiment: Inhibition of platelet aggregation induced by PAF (Test 1); assay type: cell-based, male New Zealand albino rabbits; conditions: concentration needed to inhibit platelet aggregation by 50%, PAF 16 nM final, rabbit platelet rich plasma
Experimental: Test 1: Inhibition of Platelet Aggregation Induced by PAF.
The blood is obtained by cardiac puncture of male New Zealand albino rabbits (between 2 and 2.5 Kg of weight) and coagulation is prevented by adding 1 part of 3.16% sodium citrate dihydrate in 9 parts of blood. The platelet rich plasma (PRP) is prepared by blood centrifugation at 250 xg for 10 min. at 4° C. and it is diluted with platelet poor plasma (PPP) obtained by additional centrifugation at […] for 10 min. The amount of platelets is adjusted to […]. The platelet aggregation induced by PAF (C18, prepared in our laboratory) (16 nM, final) is determined by the Born nephelometric technique (J. Physiol., 1962, 162, 67) using a aggregometer Chronolog 500. The activities of the inhibitors are expressed as IC50, that is to say the concentration of the drug needed to inhibit the platelet aggregation in a 50%.

[2] = test system: hypotension induced by PAF; experiment: Inhibition of the hypotensive effect induced by PAF in normotense rats (Test 2); assay type: in vivo, Male Sprague Dawley rats; conditions: i.v., 3 min before PAF (0.5 mg/Kg, i.v.), anesthetized rats
Experimental: Test 2--Inhibition of the Hypotensive Effect Induced by PAF in normotense Rats.
(§1) Male Sprague Dawley rats, of 180-220 g of weight, anesthetized with sodium pentobarbital (50 mg/Kg, i.p. 1 mL/100 g) have been used. In order to measure the average arterial pressure, a polyethylene catheter is introduced into the carotide artery. The arterial pressure is recorded with the help of a transducer connected with a R611 Beckman polygraph. The tested compounds are administrated through the femoral vein 3 min. Before the injection of PAF (0.5 mg/Kg, i.v.).

[3] = test system: hypotension induced by PAF; experiment: Reversion of the hypotensive effect induced by PAF in normotense rats (Test 3); assay type: in vivo, Male Sprague Dawley rats; conditions: Rattus norvegicus, iv, 1 min; i.v., 1 min after the injection of PAF; read-out: ID50, dose required to reduce in a 50% the time of recovery of the basal blood pressure
Experimental: as §1
Test 3--Reversion of the Hypotensive Effect Induced by PAF in Normotense Rats
The experimental design is similar to that of test 2, except in that the compound to be tested is given by intravenous injection 1 min. After the injection of PAF. In the controls the blood pressure recovers 80% of the basal level 6.2 min. after the injection of PAF. The effect of the tested compounds is expressed as the dose required to reduce in a 50% the time of recovery of the basal blood pressure (ID50).

[4] = Oryctolagus cuniculus, Platelet

| IC50 [1, 4] | SMILES | % Inhibition of the hypotension induced by PAF ([2]; compound 5 mg/Kg) | other results |
| --- | --- | --- | --- |
| 5.5 µM | CCCCCCCCCCCCCCCCCC1OCC(COCCCC[n+]2ccccc2)O1 (racemic) [Compound 1, (±)-cis, trans-1[4-[(2-heptadecyl-1,3-dioxolane-4-yl)methoxy]butyl]piridinium 4-methylbenzenesulphonate] | 24% | – |
| 180 µM | CCCCCCCCCCCCCCCCCC1OCC(COP(=O)([O-])OCC[N+](C)(C)C)O1 (racemic) [Compound 47, (±)-cis, trans-2-[[[(2-heptadecyl-1,3-dioxolane-4-yl)methoxy]hydroxyphosphinyl]oxy]-N,N,N-trimethylethanaminium hydroxide, inner salt] | – | – |
| 18 µM | CCCCCCCCCCCCCCCCCC1OCC(COCCCCCC[N+]2(C)CCOCC2)O1 (racemic) [Compound 9, (±)-cis, trans-4-[6-[(2-heptadecyl-1,3-dioxolane-4-yl)methoxy]hexyl]-4-methylmorpholinium 4-methylbenzenesulfonate] | – | – |
| 5.5 µM | CCCCCCCCCCCCCCCCCC1OCC(COCCCCCC[N+](C)(C)C)O1 (racemic) [Compound 10, (±)-cis, trans-6-[(2-heptadecyl-1,3-dioxolane-4-yl)methoxy]-N,N,N-trimethyl-1-hexanaminium 4-methylbenzenesulfonate] | – | – |
| 180 µM | CCCCCCCCCCCCCCCCCC1OCC(COP(=O)([O-])OCC[n+]2ccccc2)O1 (racemic) [Compound 48, (±)-cis, trans-1-[2-[[[(2-heptadecyl-1,3-dioxolane-4yl)methoxy]hydroxyphosphinyl]oxy]ethyl]pyridinium hydroxide, inner salt] | – | – |
| 6 µM | CCCCCCCCCCCCCCCCCC1OCC(COCCCC[n+]2ccsc2)O1 (racemic) [Compound 2, (±)-cis, trans-3-[4-[(2-heptadecyl-1,3-dioxolane-4-yl)methoxy]butyl]thiazolium 4-methylbenzenesulfonate] | – | – |
| 21 µM | CCCCCCCCCCCCCCCCCC1OCC(COC(=O)CCCCC[N+]2(C)CCOCC2)O1 (racemic) [Compound 30, (±)-cis, trans-4-[6-[(2-heptadecyl-1,3-dioxolane-4-yl)methoxy]-6-oxohexyl]-4-methylmorpholinium 4-methylbenzenesulfonate] | – | – |
| 3.9 µM | CCCCCCCCCCCCCCCCCC1OCC(COCCCCCC[n+]2cccc3ccccc32)O1 (racemic) [Compound 11, (±)-cis, trans-1-[6-(2-heptadecyl-1,3-dioxolane-4-yl)methoxy]hexyl]quinolinium 4-methylbenzenesulfonate] | – | – |
| 5.1 µM | CCCCCCCCCCCCCCCCCC1OCC(COCCCCCCCC[n+]2ccsc2)O1 (racemic) [Compound 22, (±)-cis, trans-3-[8-[(2-heptadecyl-1,3-dioxolane-4-yl)methoxy]octyl]thiazolium 4-methylbenzenesulfonate] | – | – |
| 2.5 µM | CCCCCCCCCCCCCCCCCC1OCC(COC(=O)CCCCC[n+]2cccc3ccccc32)O1 (racemic) [Compound 32, (±)-cis, trans-1-[6-[(2-heptadecyl-1,3-dioxolane-4-yl)methoxy]-6-oxohexyl]quinolinium 4-methylbenzenesulfonate] | 80% | – |

More lines, now with the values behind:

| SMILES | IC50 [1, 4] | % Inhibition of the hypotension induced by PAF ([2]; compound 5 mg/Kg) | other results |
| --- | --- | --- | --- |
| CCCCCCCCCCCCCCCCCC1OCC(COCCCCCC[n+]2csc3ccccc32)O1 (racemic) [Compound 12, (±)-cis, trans-3-[6-[(2-heptadecyl-1,3-dioxolane-4-yl)methoxy]hexyl]benzothiazolium4-methylbenzenesulfonate] | 16 µM | – | – |
| CCCCCCCCCCCCCCCCCC1OCC(COC(=O)CCCCC[n+]2ccccc2)O1 (racemic) [Compound 24, (±)-cis, trans-1-[6-[(2-heptadecyl-1,3-dioxolane-4-yl)methoxy]-6-oxohexyl]pyridinium 4-methylbenzenesulfonate] | 2.6 µM | 72% | % Inhibition of the hypotension induced by PAF ([2]; compound 2.5 mg/Kg): 58% |
| CCCCCCCCCCCCCCCCCC1OCC(COCCCC[n+]2ccsc2)O1 (racemic) [Compound 5, (±)-cis, trans-3-[4-[(2-heptadecyl-1,3-dioxolane-4-yl)methoxy]butyl)thiazolium iodide] | – | – | IC50 [1]: 5 µM |
| CCCCCCCCCCCCCCCCCC1OCC(COC(=O)CCCCC[N+](C)(C)C)O1 (racemic) [Compound 31, (±)-cis, trans-6-[(2-heptadecyl-1,3-dioxolane-4-yl)methoxy]-6-oxo-N,N,N-trimethyl-1-hexanaminium 4-methylbenzenesulfonate] | 7.8 µM | – | – |
| CCCCCCCCCCCCCCCCCC1OCC(COCCCCCC[n+]2cscc2C)O1 (racemic) [Compound 7, (±)-cis, trans-3-[6-[(2-heptadecyl-1,3-dioxolane-4-yl)methoxy]hexyl]-4-methylthiazolium 4-methylbenzenesulfonate] | 3.1 µM | – | – |
| CCCCCCCCCCCCCCCCCC1OCC(COCCCCCC[n+]2ccsc2)O1 (racemic) [Compound 8, (±)-cis, trans-3-[6-[(2-heptadecyl-1,3-dioxolane-4-yl)methoxy]hexyl]thiazolium 4-methylbenzenesulfonate] | 1.4 µM | 88% | % Inhibition of the hypotension induced by PAF ([2]; compound 1.25 mg/Kg): 46%; % Inhibition of the hypotension induced by PAF ([2]; compound 2.5 mg/Kg): 75%; ED50 [3]: 0.3 mg/kg |
| CCCCCCCCCCCCCCCCCC1OCC(COC(=O)CCCCC[n+]2cscc2C)O1 (racemic) [Compound 26, (±)-cis, trans-3-[6-[(2-heptadecyl-1,3-dioxolane-4-yl)methoxy]-6-oxohexyl]-4-methylthiazolium 4-methylbenzenesulfonate] | 2.5 µM | – | – |
| CCCCCCCCCCCCCCCCCC1OCC(COC(=O)CCCCC[n+]2ccsc2)O1 (racemic) [Compound 27, (±)-cis, trans-3-[6-[(2-heptadecyl-1,3-dioxolane-4-yl)methoxy]-6-oxohexyl]thiazolium 4-methylbenzenesulfonate] | 1.3 µM | 100% | % Inhibition of the hypotension induced by PAF ([2]; compound 0.63 mg/Kg): 28%; % Inhibition of the hypotension induced by PAF ([2]; compound 1.25 mg/Kg): 75%; ED50 [3]: 0.16 mg/kg |
| CCCCCCCCCCCCCCCCCC1OCC(COCCCCCC[n+]2ccccc2)O1 (racemic) [Compound 6, (±)-cis, trans-1-[6-[(2-heptadecyl-1,3-dioxolane-4-yl)methoxy]hexyl]pyridinium 4-methylbenzenesulfonate] | 3.3 µM | 42% | – |
| CCCCCCCCCCCCCCCCCC1OCC(COCCCCCCCC[n+]2ccccc2)O1 (racemic) [Compound 20, (±)-cis, trans-1-[8-[(2-heptadecyl-1,3-dioxolane-4-yl)methoxy]octyl]pyridinium 4-methylbenzenesulfonate] | 14 µM | – | – |
